In paper PMC5690597, “Suppression and resolution of autoimmune arthritis by rhesus θ-defensin-1, an immunomodulatory macrocyclic peptide” (PLoS ONE, 2017):

Test system: DA/OlaHsd rats with pristane-induced arthritis
Assay: Pristane-induced arthritis (PIA), established disease (AS ≥ 3)
Type: in vivo, rat
Conditions: for effect on arthritis progression by day 3 of treatment compared to vehicle controls: MTX 0.25 mg/kg i.p. q3d, etanercept 0.4 mg/kg s.c. q3d, P < 0.05; for rate of complete disease resolution on day 11, comparison with RA drugs: RTD-1 s.c. (4 of 16), MTX 0.25 mg/kg i.p. q3d (1 of 22), etanercept 0.4 mg/kg s.c. q3d (0 of 21), saline 0 of 19, 2 independent experiments
Description: Female DA/OlaHsd (D blood group allele and Agouti, also known as Dark Agouti), rats were obtained from Harlan Laboratories (Indianapolis, IN). Animals were allowed to acclimate for 48–72 hours prior to experimental use. Animals were fed standard chow ad lib during a 12-hour day/night cycle. PIA was induced in 5–7 week old animals (90–100 gm) by intradermal injection of 250 μl pristane (Sigma) divided into 3–5 sites at the base of the tail. Animals were monitored daily and disease severity of each limb was scored 0–4 using the method of Brand et al.. The severity scores for all limbs of individual animals were totaled to give an individual’s arthritis severity score (AS) ranging from zero for normal animals to maximum disease score of sixteen. […] In three separate trials, treatment was also blinded to scorers. […] Treatment with saline (vehicle), RTD-1, or anti-arthritic agents was randomized and initiated when an animal first presented with an AS of 3 or more. RTD-1 was administered subcutaneously with doses ranging from 0.2 to 5.0 mg/kg in an injection volume of 0.5 ml at intervals ranging from once a day (qd) to once every seven days (q7d). MTX was administered at 0.25 mg/kg by intraperitoneal injection q3d. Etanercept was administered at 0.4 mg/kg by subcutaneous injection q3d.

Compound | effect on arthritis progression by day 3 of treatment compared to vehicle controls | rate of complete disease resolution on day 11, comparison with RA drugs [%]
CN(Cc1cnc2nc(N)nc(N)c2n1)c1ccc(C(=O)N[C@@H](CCC(=O)O)C(=O)O)cc1 [MTX, Methotrexate, reference compound] | limited the progression of arthritis | 4.5
Etanercept [reference compound] | limited the progression of arthritis | 0
